Experimental data: patent US12084411B2, “Hinokitiol analogues, methods of preparing and pharmaceutical compositions thereof” (The Board of Trustees of the University of Illinois, priority 2018, dated 2024)

What was measured:
[1] = target: transferrin (Homo sapiens, UniProt P02787); test: Removal of 55Fe from transferrin; format: biochemical; conditions: buffered solution, 1 nM transferrin
Experimental: The capacity for hinokitiol to remove iron from transferrin was determined through a ^55Fe assay adapted from Cerami and coworkers (62). ^55Fe was loaded onto transferrin (Tf) similar to previously described in PBS buffer (63). Increasing hinokitiol doses (from 1000X stocks in DMSO) were added to a solution of ^55Fe2Tf (1 nM) in PBS buffer to give the final indicated concentrations. The solution was incubated at 37° C. for 3 hours. After incubation, any ^55Fe bound to hinokitiol was isolated by extraction of iron:hinokitiol complexes with EtOAc. The radioactive levels in the organic layer were determined after dilution in scintillation cocktail.

[2] = tested on: FPN1-deficient Flatiron (ffe/+) mice; test: 59Fe gut absorption in Flatiron mice; format: in vivo; conditions: 1.5 mg/kg, oral gavage, after one and two hours
Experimental: Temporal live cell imaging of labile iron levels in shDMT1 Caco-2 monolayers was performed after staining of Caco-2 monolayers with calcein green-AM (5 μM) in the apical and basolateral liquid for 30 minutes in pH=7.4 DMEM. […] Final volume administered was 1.5 mL/kg for each mouse, correcting for individual body weight. […] […] Radioactivity was quantified by gamma counting and calculated as the percentage of gavaged dose (±SEM). Experiments were performed with 4 genotyped-matched mice/day; preliminary analysis determined there were no gender effects on uptake of ^59Fe after intragastric gavage; mixed genders were used in the experiments shown.

[3] = Exchangeability of ferric iron bound to hinokitiol; format: physicochemical
Experimental: The reversible exchange of ferric iron bound to hinokitiol was determined similar to previously described (69). […] The solution was equilibrated for 1 hour at 37° C., and then an equal amount of ^55FeCl3 (100 nM) was added. The solution was incubated at 37° C., and at the indicated time points an aliquot was taken and added to water. The iron-hinokitiol complex was immediately separated from unbound iron through extraction with ethyl acetate and the radioactive counts were determined by scintillation counting.

transferrin, sequence (P02787 20-698, species assumed): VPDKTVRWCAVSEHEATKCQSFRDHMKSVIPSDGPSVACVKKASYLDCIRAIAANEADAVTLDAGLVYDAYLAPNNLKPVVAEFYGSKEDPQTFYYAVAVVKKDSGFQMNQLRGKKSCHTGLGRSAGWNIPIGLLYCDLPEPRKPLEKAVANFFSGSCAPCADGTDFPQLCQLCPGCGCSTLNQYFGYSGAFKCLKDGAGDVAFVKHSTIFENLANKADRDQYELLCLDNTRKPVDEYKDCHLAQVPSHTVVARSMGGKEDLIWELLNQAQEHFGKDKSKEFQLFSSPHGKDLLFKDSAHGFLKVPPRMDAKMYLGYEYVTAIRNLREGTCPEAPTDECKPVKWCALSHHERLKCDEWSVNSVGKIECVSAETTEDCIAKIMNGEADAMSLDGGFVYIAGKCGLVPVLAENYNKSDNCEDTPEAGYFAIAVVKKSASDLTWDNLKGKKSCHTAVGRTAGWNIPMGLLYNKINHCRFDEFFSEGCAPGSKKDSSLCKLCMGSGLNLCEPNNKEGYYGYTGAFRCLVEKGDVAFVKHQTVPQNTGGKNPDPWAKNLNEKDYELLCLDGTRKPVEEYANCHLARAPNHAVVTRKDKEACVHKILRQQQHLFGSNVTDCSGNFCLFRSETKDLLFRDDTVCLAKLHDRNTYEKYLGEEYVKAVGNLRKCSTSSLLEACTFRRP

CC(C)c1cccc(=O)c(O)c1 [hinokitiol]
excess of hinokitiol relative to transferrin needed to remove iron [1]: > 1,000 fold
59Fe absorption [2]: increased ^59Fe absorption
time to equilibrium between 55Fe- and 56Fe-hinokitiol complex ([3]; 10 mM Mes/Tris, pH 7.0): within one hour
exchange of bound 56Fe with 55Fe in solution ([3]; within 10 minutes, pH 7.0, 37° C.): > 20%
